Assays:
[1] = target: Trypsin (Homo sapiens, UniProt P07477+P07478+P35030); assay: Inhibition of trypsin (unknown origin) using S-2222 as substrate after 15 mins by spectrophotometry; format: protein assay
[2] = target: Prothrombin (Homo sapiens, UniProt P00734); assay: Inhibition of thrombin (unknown origin) using S-2238 as substrate after 15 mins by spectrophotometry
[3] = target: Coagulation factor X (Homo sapiens, UniProt P00742); assay: Inhibition of factor 10a (unknown origin) using S-2222 as substrate after 15 mins by spectrophotometry
Coagulation factor X, sequence (P00742 41-179 limits assumed): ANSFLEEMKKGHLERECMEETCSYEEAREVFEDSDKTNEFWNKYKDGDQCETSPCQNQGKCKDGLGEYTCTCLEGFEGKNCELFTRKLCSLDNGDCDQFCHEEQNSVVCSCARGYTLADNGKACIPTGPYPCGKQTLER
Coagulation factor X, sequence (P00742 235-488 limits assumed): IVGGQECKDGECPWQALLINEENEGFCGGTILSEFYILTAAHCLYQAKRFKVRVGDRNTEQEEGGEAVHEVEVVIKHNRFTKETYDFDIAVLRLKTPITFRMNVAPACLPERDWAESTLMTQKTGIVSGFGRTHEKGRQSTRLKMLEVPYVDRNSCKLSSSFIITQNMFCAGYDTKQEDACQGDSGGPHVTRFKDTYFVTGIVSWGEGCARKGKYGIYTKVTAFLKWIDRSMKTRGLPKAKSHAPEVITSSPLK

[4] = Metabolic stability in human plasma assessed as compound remaining at […] after 4 hrs by HPLC analysis; format: ADME, cell-free; conditions: read-out: Stability

Question: For `O=C(NC[C@H]1CN(c2ccc(N3CCCC(C(=O)O)C3)cc2)C(=O)O1)c1ccc(Cl)s1` (mixture of isomers), which Ki [1] is on record?
Answer: Its Ki is greater than 100 µM.

Question: What about the Ki [2] of the same molecule?
Answer: The Ki was 17.6 µM.

Question: What about the Ki [3] of the same molecule?
Answer: The Ki was 1.22 µM.

Question: With `O=C(NC[C@H]1CN(c2ccc(N3CCC(C(=O)O)CC3=O)cc2)C(=O)O1)c1ccc(Cl)s1` (mixture of isomers) as the molecule, how does the Ki [1] read?
Answer: The Ki was greater than 100 µM.

Question: And the Ki [2]?
Answer: The Ki was 69.6 µM.

Question: What about the Ki [3] of the same molecule?
Answer: Its Ki is 0.337 µM.

Question: Which Ki [1] does the source give for `O=C(NC[C@H]1CN(c2ccc(N3CCC(C(=O)O)CC3)cc2)C(=O)O1)c1ccc(Cl)s1` (mixture of isomers) here?
Answer: Its Ki is greater than 100 µM.

Question: What about the Ki [2] of the same molecule?
Answer: The Ki was 16.6 µM.

Question: What about the Ki [3] of the same molecule?
Answer: Its Ki is 0.0887 µM.

Question: For `CCOC(=O)C1CCN(c2ccc(N3C[C@H](CNC(=O)c4ccc(Cl)s4)OC3=O)cc2)C(=O)C1` (mixture of isomers), which Ki [1] is on record?
Answer: The Ki was greater than 100 µM.

Question: And the Ki [2]?
Answer: The Ki was greater than 100 µM.

Question: What about the Ki [3] of the same molecule?
Answer: The Ki was 0.0219 µM.

Question: What does the source list for `CCOC(=O)C1CCCCN1c1ccc(N2C[C@H](CNC(=O)c3ccc(Cl)s3)OC2=O)cc1` (mixture of isomers)?
Answer: remaining at 4 h [4]: 100%; Ki [1]: > 100 µM; Ki [2]: 0.353 µM; Ki [3]: 0.0622 µM

Question: Which results are given for `CCOC(=O)C1CCCN(c2ccc(N3C[C@H](CNC(=O)c4ccc(Cl)s4)OC3=O)cc2)C1` (mixture of isomers)?
Answer: Ki [1]: > 100 µM; Ki [2]: > 100 µM; Ki [3]: 0.0624 µM

Question: What does the source list for `CCOC(=O)C1CCN(c2ccc(N3C[C@H](CNC(=O)c4ccc(Cl)s4)OC3=O)cc2)CC1` (mixture of isomers)?
Answer: remaining at 4 h [4]: 95%; Ki [1]: > 100 µM; Ki [2]: > 100 µM; Ki [3]: 0.769 µM
